Laboratory results reported in patent US8841310B2, “Combinations of a pyrimidine containing NNRTI with RT inhibitors” (Janssen R & D Ireland, priority 2003, dated 2014).
Read-outs that look alike come from different tables or passages of the source.

Key:
[1] = tested on: monotropic HIV strain Ba-L; experiment: MO-DC/CD4(+) T cell co-culture model of sexual HIV transmission; type: cell-based; conditions: Human immunodeficiency virus 1, BAL, T-cell, 336 h, read-out: EC50 (concentration suppressing 50% of viral replication)
Description: Immature monocyte derived dendritic cells (immMO-DC) represent a good model for interstitial dendritic cells, which are early targets during sexual HIV transmission and important initiators of the immune response. These immMO-DC were used in “in vitro” models to test the prevention of HIV infection via sexual intercourse or related intimate contact between partners.
For instance, in one model, monocyte-derived dendritic cells (MO-DC) were infected for 2-hours with the monotropic HIV strain Ba-L at a multiplicity of infection (MOI) of 10^−3. After infection, cells were washed 6 times and resuspended in 10% BCS at 400.000 cells/ml. Autologous CD4(+) T cells were purified out of the lymphocyte fraction of the same elutration as the MO-DC and used at a concentration of 2×10^6 cells/ml ((ratio MO-DC/CD4(+) T: 1/5).
A serial dilution of a compound of formula (I) (test compound) was added to the MO-DC/CD4(+) T cell co-cultures. Each experiment was done in 96-well plates, in which each cup contained 50 μl of MO-DC, 50 μl of CD4(+) T cells and 100 μl of test compound. Half of the culture medium, with test compound, was refreshed twice weekly. Supernatants were analysed in ELISA after 14 days of culture. To determine antiviral activity, the test compound concentration able to suppress 50% of the viral replication at the end of the primary cultures (EC50) was measured.

[2] = tested on: HIV-1 double resistant mutant K103N+Y181C; experiment: Development of resistance in vitro, starting from double mutant; type: cell-based
Description: (§1) Emerging virus was collected for pheno- and genotyping. Cultures without evidence of virus replication were further sub-cultivated in the presence of the same concentration of inhibitor for a total duration of 30 days (10 passages).

[3] = tested on: HIV-1 single mutant 103N; experiment: Development of resistance in vitro, starting from single mutant; type: cell-based; conditions: starting from 103N
Description: as §1

[4] = tested on: HIV-1 single mutant Y181C; experiment: as above; type: cell-based
Description: as §1

[5] = tested on: wild type HIV-1; experiment: Development of resistance in vitro, MT4 cells, high multiplicity of infection; type: cell-based; conditions: wild type HIV-1, >1 infectious virus per cell, all tested concentrations, total 30 days
Description: as §1

[6] = Cardiovascular and pulmonary safety in vivo; conditions: plasma levels covering and exceeding the targeted plasma levels in man
[7] = tested on: HIV-1 mutant 190S; experiment: MT-4 cell-based antiviral assay, SDM mutant; conditions: Human immunodeficiency virus 1, MT4
Method: (§2) Compound E-TMC278 was tested in a cell-based assay, using natural host cells of HIV. MT-4 cells (a cell line of human T cells) were infected with HIV-1 (wild type or mutants) and exposed to different concentrations of antiviral compound in the presence of 10% fetal calf serum. Cytotoxicity was determined in parallel with the antiviral activity so that the selectivity of the antiviral effect could be assessed. Active compounds have to penetrate the cell membrane in order to interfere with replication steps inside the cell.
(§3) After four days of incubation at 37° C., the viability of the HIV and mock-infected cells was assessed by an automated tetrazolium-based calorimetric assay. This method enabled the calculation of both the 50% inhibitory concentration for inhibition of viral cytopathicity (IC50), the IC90, and the 50% cytotoxic concentration (CC50). The ratio CC50/IC50, also called the selectivity index, is an indication of the specificity of the antiviral effect. Tested HIV strains included: Wild type (wt) HIV-1; a panel of single and double mutants, obtained by site-directed mutagenesis (SDM), and a panel of clinical isolates, selected for resistance against NNRTIs.
(§4) A limited panel of HIV-1 mutants was constructed using site-directed mutagenesis (SDM) and homologous recombination techniques. […] Nevirapine (NVP) and efavirenz (EFV) were included as controls.

[8] = tested on: HIV-1 mutant 106A; experiment: MT-4 cell-based antiviral assay, SDM mutant; conditions: Human immunodeficiency virus 1, MT4
Method: as §2, §3, §4

[9] = tested on: HIV-1 mutant 188H; experiment: MT-4 cell-based antiviral assay, SDM mutant; conditions: Human immunodeficiency virus 1, MT4
Method: as §2, §3, §4

[10] = tested on: HIV-1 mutant 225H; experiment: MT-4 cell-based antiviral assay, SDM mutant; conditions: Human immunodeficiency virus 1, MT4
Method: as §2, §3, §4

[11] = tested on: HIV-1 double mutant 103N + 181I; experiment: MT-4 cell-based antiviral assay, SDM mutant; conditions: Human immunodeficiency virus 1, MT4, 96 h
Method: as §2, §3, §4

[12] = tested on: HIV-1 mutant 108I; experiment: MT-4 cell-based antiviral assay, SDM mutant; conditions: Human immunodeficiency virus 1, MT4
Method: as §2, §3, §4

[13] = tested on: HIV-1 mutant 103N; experiment: MT-4 cell-based antiviral assay, SDM mutant
Method: as §2, §3, §4

[14] = tested on: HIV-1 mutant 181C; experiment: MT-4 cell-based antiviral assay, SDM mutant
Method: as §2, §3, §4

[15] = tested on: HIV-1 mutant 179D; experiment: MT-4 cell-based antiviral assay, SDM mutant; conditions: Human immunodeficiency virus 1, MT4
Method: as §2, §3, §4

[16] = tested on: HIV-1 mutant 234I; experiment: MT-4 cell-based antiviral assay, SDM mutant; conditions: Human immunodeficiency virus 1, MT4
Method: as §2, §3, §4

[17] = tested on: HIV-1 double mutant 103N + 181C; experiment: MT-4 cell-based antiviral assay, SDM mutant
Method: as §2, §3, §4

[18] = tested on: HIV-1 double mutant 101E + 103N; experiment: MT-4 cell-based antiviral assay, SDM mutant; conditions: Human immunodeficiency virus 1, MT4, 96 h
Method: as §2, §3, §4

[19] = tested on: HIV-1 mutant 227C; experiment: MT-4 cell-based antiviral assay, SDM mutant
Method: as §2, §3, §4

[20] = tested on: HIV-1 mutant 188C; experiment: MT-4 cell-based antiviral assay, SDM mutant; conditions: Human immunodeficiency virus 1, MT4
Method: as §2, §3, §4

[21] = tested on: HIV-1 mutant 190A; experiment: MT-4 cell-based antiviral assay, SDM mutant; conditions: Human immunodeficiency virus 1, MT4
Method: as §2, §3, §4

[22] = tested on: HIV-1 mutant 188L; experiment: MT-4 cell-based antiviral assay, SDM mutant
Method: as §2, §3, §4

[23] = tested on: HIV-1 mutant 236L; experiment: MT-4 cell-based antiviral assay, SDM mutant; conditions: Human immunodeficiency virus 1, MT4
Method: as §2, §3, §4

[24] = tested on: HIV-1 double mutant 100I + 103N; experiment: MT-4 cell-based antiviral assay, SDM mutant
Method: as §2, §3, §4

[25] = tested on: HIV-1 mutant 227L; experiment: MT-4 cell-based antiviral assay, SDM mutant; conditions: Human immunodeficiency virus 1, MT4
Method: as §2, §3, §4

[26] = tested on: HIV-1 double mutant 227L + 106A; experiment: MT-4 cell-based antiviral assay, SDM mutant
Method: as §2, §3, §4

[27] = tested on: HIV-1 mutant 101E; experiment: MT-4 cell-based antiviral assay, SDM mutant; conditions: Human immunodeficiency virus 1, MT4
Method: as §2, §3, §4

[28] = Human immunodeficiency virus 1, MT4
[29] = Human immunodeficiency virus 1, MT4, read-out: IC50 value

## Cc1cc(/C=C/C#N)cc(C)c1Nc1ccnc(Nc2ccc(C#N)cc2)n1 [E-TMC278, (E)-4-[[4-[[4-(2-cyanoethenyl)-2,6-dimethylphenyl]-amino]-2-pyrimidinyl]-amino]-benzonitrile]
[1]
  EC50: 0.55 nM
[2]
  emergence of resistance: resistance did emerge at all tested concentrations
[3]; at 10 nM
  virus breakthrough: did occur
[3]; at 40 and 200 nM
  virus breakthrough: did not occur
[4]; at 10 nM
  virus breakthrough: did occur
[4]; at 40 and 200 nM
  virus breakthrough: did not occur
[5]
  time to emergence of resistant virus: > 30 days
[6]
  effect on cardiovascular and pulmonary parameters in vivo: little or no effect
[7]
  IC50: 0.1 nM
[8]
  IC50: 0.2 nM
[9]
  IC50: 0.2 nM
[10]
  IC50: 0.3 nM
[11]
  IC50: 1 nM
[12]
  IC50: 0.3 nM
[13]; [28]
  IC50: 0.3 nM
[13]; [29]
  IC50: 0.3 nM
[14]; [28]
  IC50: 1.3 nM
[14]; [29]
  IC50: 1.3 nM
[15]
  IC50: 0.6 nM
[16]
  IC50: 0.3 nM
[17]; [28]
  IC50: 0.8 nM
[17]; [29]
  IC50: 1 nM
[18]
  IC50: 0.5 nM
[19]; [28]
  IC50: 2 nM
[19]; [29]
  IC50: 2 nM
[20]
  IC50: 0.1 nM
[21]
  IC50: 0.3 nM
[22]; [28]
  IC50: 2 nM
[22]; [29]
  IC50: 2 nM
[23]
  IC50: 0.3 nM
[24]; [28]
  IC90: ~16 nM
[24]; Human immunodeficiency virus 1, MT4, 96 h, 100I + 103N, MT-4 cells
  IC50: ~8 nM
[24]; Human immunodeficiency virus 1, MT4, read-out: IC50 value, Table 1, HIV RT mutation: 100I + 103N
  IC50: 7.9 nM
[25]
  IC50: 0.3 nM
[26]; Human immunodeficiency virus 1, MT4, 96 h
  IC50: 1 nM
[26]; [29]
  IC50: 1 nM
[27]
  IC50: 1.6 nM
